# In ChEMBL document CHEMBL1146911, “Synthesis and SAR of conformationally restricted inhibitors of soluble epoxide hydrolase” (Bioorg Med Chem Lett, 2006):
# Test system: not listed separately
# Test: AUC in dog at 0.3 mg/kg, po
# Assay type: ADME, organism-based, Canis lupus familiaris
# Design: dose 0.3 mg/kg, route oral
# Conditions: plasma
row,Structure (SMILES),AUC [µM·h]
1,CC(=O)N1CCC(NC(=O)NC23CC4CC(CC(C4)C2)C3)CC1 [AR9281],0.617
2,CCCC(=O)N1CCC(NC(=O)NC23CC4CC(CC(C4)C2)C3)CC1,0.0417
3,O=C(NC1CCN(C(=O)c2ccccc2)CC1)NC12CC3CC(CC(C3)C1)C2,0.0102
4,CCC(=O)N1CCC(NC(=O)NC23CC4CC(CC(C4)C2)C3)CC1,0.108
5,O=C(NCC1CCN(C(=O)c2ccccc2)CC1)NC12CC3CC(CC(C3)C1)C2,0.0055
6,O=C(O)CCCCCCCCCCCNC(=O)NC12CC3CC(CC(C3)C1)C2,0.0517

# Further lines, results first:
row,AUC [µM·h],Structure (SMILES)
1,0.0783,O=C(NC1CCN(C(=O)c2ccccn2)CC1)NC12CC3CC(CC(C3)C1)C2
2,0.0917,CC(=O)N1CCC(CNC(=O)NC23CC4CC(CC(C4)C2)C3)CC1
3,0.055,O=C(NC1CCN(C(=O)C(F)(F)F)CC1)NC12CC3CC(CC(C3)C1)C2

# Target: T1, Bifunctional epoxide hydrolase 2 (Homo sapiens, UniProt P34913)
# T1 sequence (P34913 whole entry): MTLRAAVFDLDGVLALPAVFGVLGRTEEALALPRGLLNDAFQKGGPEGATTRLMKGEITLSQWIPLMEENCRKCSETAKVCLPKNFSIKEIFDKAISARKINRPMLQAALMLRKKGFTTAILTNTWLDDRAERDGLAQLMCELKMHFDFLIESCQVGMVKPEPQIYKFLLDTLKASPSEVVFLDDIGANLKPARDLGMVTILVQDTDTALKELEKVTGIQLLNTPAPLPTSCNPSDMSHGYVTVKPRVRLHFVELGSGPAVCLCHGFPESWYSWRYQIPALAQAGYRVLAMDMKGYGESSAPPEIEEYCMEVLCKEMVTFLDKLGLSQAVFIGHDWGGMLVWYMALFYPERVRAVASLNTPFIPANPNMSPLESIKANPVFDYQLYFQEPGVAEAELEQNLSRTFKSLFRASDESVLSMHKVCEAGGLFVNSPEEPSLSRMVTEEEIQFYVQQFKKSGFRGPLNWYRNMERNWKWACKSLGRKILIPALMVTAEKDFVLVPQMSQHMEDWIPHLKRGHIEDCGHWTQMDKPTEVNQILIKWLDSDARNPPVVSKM
# Conditions: not given
row,Structure (SMILES),IC50 [nM]
1,O=C(NCC1CCN(C(=O)c2cccc(C(=O)O)c2)CC1)NC12CC3CC(CC(C3)C1)C2,43
2,O=C(NCC1CCN(C(=O)c2ccncc2)CC1)NC12CC3CC(CC(C3)C1)C2,7.3
3,O=C(NC1CCN(C(=O)c2cccnc2)CC1)NC12CC3CC(CC(C3)C1)C2,1.7
4,O=C(NCC1CCN(C(=O)c2cccnc2)CC1)NC12CC3CC(CC(C3)C1)C2,5.4
5,O=C(NCC1CCN(C(=O)c2ccccc2C(=O)O)CC1)NC12CC3CC(CC(C3)C1)C2,400

# More lines, now with the values ahead:
row,IC50 [nM],Structure (SMILES)
1,41,O=C(O)CCCC(=O)N1CCC(CNC(=O)NC23CC4CC(CC(C4)C2)C3)CC1
2,2.1,O=C(NC1CCN(C(=O)c2ccncc2)CC1)NC12CC3CC(CC(C3)C1)C2
